Laboratory results reported in US7456225B1, “Liver protection compounds of the cyclohexenone type from Antrodia camphorata” (Golden Biotechnology Corporation, priority 2007, dated 2008).
Marks after values point to notes of the source that are not given here.

Legend:
[1] = tested on: CCl4 treated, liver injury model animals; test: Antioxidant enzymes in liver (GSH, GSHPx, catalase, SOD); assay type: in vivo, Sprague-Dawley (SD) rats; conditions: CCl4-treated rats, 8 weeks
Method: (§1) The animal model was performed with five-week-old Sprague-Dawley (SD) rats purchased from BioLasco Taiwan Co., Ltd. Healthy rats weighing 220-270 g were chosen for experiment after observing for 2 weeks in the laboratory animal room. The rats were randomly divided into 6 groups (12 rats/group): normal (gp. A); control groups including model control (gp. B) and positive control (gp. C, animals receiving silymarin); treatment groups including animals receiving 300 mg/kg of cyclohexenone (gp. D), 1000 mg/kg of cyclohexenone (gp. E), and 3000 mg/kg of cyclohexenone (gp. F), as indicated in Table 1. Only normal group was not poisoned with CCl4. The body weights were recorded to calculate the dosage. […] It helps to remove toxins from liver cells by either neutralizing the toxicity of toxic compounds or competing with the binding sites in liver. It is a potent antioxidant, protects the liver from free radicals. It has been widely studied for treating various types of liver injury in animals and clinical trials. The beneficial effects on liver protection have made silymarin a good medicine for liver diseases and a drug in positive control group for the animal model of liver injury.
(§2) Rats in normal group (group A) were fed with corn oil (Sigma chemical co.) by means of stomach tubes. Carbon tetrachloride (Shimakyu, Osaka, Japan) was administered to groups B to F via stomach tubes twice weekly (every Tuesday and Thursday afternoon) for 8 weeks, at a dose of 2 ml/kg of body weight, diluted with corn oil. Silymarin was prepared with saline in an amount of 200 mg/kg of body weight and was fed to rats of group C via a stomach tube. Cyclohexenone prepared from example 1 was mixed with saline, and fed in the amounts of 300 mg/kg, 1000 mg/kg and 3000 mg/kg of body weight to rats of group D to F via stomach tubes. The total feeding volume was estimated in the ratio of 10 ml/kg of body weight to groups C to F five days a week (every morning) for 8 weeks. The body weights of rats and the amounts of food intake in rats for each group were shown in FIG. 1 and FIG. 2, respectively.
The liver stored at −80° C. as described above was immersed in PBS buffer (phosphate buffered saline solution, pH 7.4) containing 0.16 mg/ml heparin. Red blood cells were removed from the tissue. Liver was prepared as 1.0 g tissue/10 mL buffer homogenates in fresh, chilled 50 mM phosphate, 1 mM EDTA (pH 6-7) buffer using a Polytron homogenizer (setting 5, PT 10 probe, Brinkmann Instruments, Westbury, N.Y.) for one min. The solution was centrifuged at 10,000×g for 15 min at 4° C. Protein concentration was determined with a BCA protein assay kit (Pierce, Ill., USA) at 550 nm using an enzyme linked immunosorbent assay (ELISA) reader (MAX ELISA Reader, Quant, Bio-Tek Instrument, Vermont, USA). Commercial kits of glutathione (GSH), glutathione peroxidase (GSHPx), catalase (CAT), superoxide dismutase (SOD) (Glutathione Assay Kit, Cat No. 703002; Glutathione Peroxidase Assay Kit, Cat No. 703102; Catalase Assay Kit, Cat No. 707002; Superoxide Dismutase Assay Kit, Cat No. 706002) were purchased from Cayman Chemical Company (MI.USA) and assayed by reading at 405 nm, 340 nm, 540 nm and 450 nm using an ELISA reader. Deprotein step was carried out for all the assays mention above except SOD assay. Proteins were precipitated by mixing with equal volume of 10% metaphosphoric acid (w/v), vortex-mixed evenly, centrifuged at 2,000×g for 2 min. The supernatant was removed for enzyme assay. All values are expressed as mean ±SD, which were evaluated using One-way Analysis of Variance. Those with significant differences were further tested with the Least Significant Difference Test (LSD) or Student t-test to compare cyclohexenone treatment groups and normal groups, positive control and model groups. P<0.05 was selected as criterion for statistical significance in all cases.

[2] = tested on: CCl4-induced liver fibrosis in rats; test: Histological evaluation of liver fibrosis (Masson's trichrome, 0-4 scale); assay type: in vivo, Sprague-Dawley (SD) rats; conditions: for Liver fibrosis score: 0-4 scale, CCl4-treated rats, 8 weeks; for Liver fibrosis +, counts of pathological rats: level 1, portal fibrosis without septa; for Liver fibrosis ++, counts of pathological rats: level 2, incomplete septa; for Liver fibrosis +++, counts of pathological rats: level 3, intact septal fibrosis and bridging; for Liver fibrosis ++++, counts of pathological rats: level 4, complete thick septa, definite cirrhosis
Method: as §1, §2
The pathological changes of the liver surface were examined with naked eyes when the liver was taken out from rats, and then tissue sections were made. Half of each liver lobe was stored at −80° C. for antioxidant enzyme assay to follow up. The rest of liver tissues were fixed in 10% formalin for one week, embedded in paraffin cut into 2 μm sections, and stained with Hematoxyline-eosin (H&E) to visualize the lipid deposition, inflammation, cell necrosis and fibrosis, or stained with Masson's trichromic solution to visualize extracellular matrix and collagen fibers for liver fibrosis development. The pathological changes of liver injury were evaluated under light microscope (Opticphot-2, Nikon, Tokyo, Japan) after stained with the abovementioned solution.
Liver fibrosis was evaluated semiquantitatively according to the scoring methods from Gabriele et al. (Gabriele, B. 1997. Silymarin retards collagen accumulation in early and advanced biliary fibrosis secondary to complete bile duct obliteration in rats. Hepatology 26: 643-649) and Wang et al. (Wang, G. S., Eriksson, L. C., Xia, L., Olsson, J. and Stal, P. 1999. Dietary iron overload inhibits carbon tetrachloride-induced promotion in chemical hepatocarcinogenesis: effects on cell proliferation, apoptosis, and antioxidation. J. Hepatol. 30(4):689-98.). Fibrosis was staged on a 0-4 scale: level 0, no fibrosis, normal liver tissue; level 1, proliferation of collagen, portal fibrosis without septa (proliferation of radiating fiber in central vein or periportal region); level 2, incomplete septa between central vein and periportal region (septa without bridging); level 3, intact septal fibrosis and bridging, many nodules in liver, the septa is thin; and level 4, complete thick septa, definite cirrhosis. The results are shown in FIG. 3 to FIG. 5, and Table 3.

COC1=C(OC)C(O)C(C/C=C(\C)CC/C=C(\C)CCC=C(C)C)C(C)C1=O (centres unmarked) [Cyclohexenone from Antrodia camphorata, 4-hydroxy-2,3-dimethoxy-6-methyl-5(3,7,11-trimethyl-dodeca-2,6,10-trienyl)-cyclohex-2-enone]
Catalase ([1]; cyclohexenone 300 mg/kg): 9.1 ± 1.0 U/mg protein
GSH (Glutathione activity) ([1]; cyclohexenone 300 mg/kg): 30.3 ± 3.2 uM/mg protein
GSHPx (glutathione peroxidase activity) ([1]; cyclohexenone 300 mg/kg): 9.6 ± 1.7 nmol/min/mL
SOD ([1]; cyclohexenone 300 mg/kg): 0.47 U/mg protein
Catalase ([1]; cyclohexenone 1000 mg/kg): 10.1 ± 1.4 U/mg protein
GSH (Glutathione activity) ([1]; cyclohexenone 1000 mg/kg): 25.2 ± 1.8*^a uM/mg protein
GSHPx (glutathione peroxidase activity) ([1]; cyclohexenone 1000 mg/kg): 11.2 ± 3.4 nmol/min/mL
SOD ([1]; cyclohexenone 1000 mg/kg): 0.52 ± 0.28 U/mg protein
Catalase ([1]; cyclohexenone 3000 mg/kg): 9.8 ± 0.9 U/mg protein
GSH (Glutathione activity) ([1]; cyclohexenone 3000 mg/kg): 26.7 ± 4.3*^a uM/mg protein
GSHPx (glutathione peroxidase activity) ([1]; cyclohexenone 3000 mg/kg): 10.6 ± 3.1 nmol/min/mL
SOD ([1]; cyclohexenone 3000 mg/kg): 0.73 ± 0.23 U/mg protein
Liver fibrosis score ([2]; cyclohexenone 300 mg/kg): 1.8*^a
Liver fibrosis score ([2]; cyclohexenone 300 mg/kg, listed as cyclohexenone from Antrodia camphorata): 1.8
Liver fibrosis score ([2]; cyclohexenone 1000 mg/kg): 2.0*^a
Liver fibrosis score ([2]; cyclohexenone 3000 mg/kg): 2.5*
Liver fibrosis −, counts of pathological rats ([2]; level 0, no fibrosis, cyclohexenone 1000 mg/kg): 2
Liver fibrosis +, counts of pathological rats ([2]; cyclohexenone 300 mg/kg): 6
Liver fibrosis +, counts of pathological rats ([2]; cyclohexenone 1000 mg/kg): 1
Liver fibrosis +, counts of pathological rats ([2]; cyclohexenone 3000 mg/kg): 2
Liver fibrosis ++, counts of pathological rats ([2]; cyclohexenone 300 mg/kg): 4
Liver fibrosis ++, counts of pathological rats ([2]; cyclohexenone 1000 mg/kg): 4
Liver fibrosis ++, counts of pathological rats ([2]; cyclohexenone 3000 mg/kg): 4
Liver fibrosis +++, counts of pathological rats ([2]; cyclohexenone 300 mg/kg): 1
Liver fibrosis +++, counts of pathological rats ([2]; cyclohexenone 1000 mg/kg): 3
Liver fibrosis +++, counts of pathological rats ([2]; cyclohexenone 3000 mg/kg): 3
Liver fibrosis ++++, counts of pathological rats ([2]; cyclohexenone 300 mg/kg): 1
Liver fibrosis ++++, counts of pathological rats ([2]; cyclohexenone 1000 mg/kg): 1
Liver fibrosis ++++, counts of pathological rats ([2]; cyclohexenone 3000 mg/kg): 2
